# Experimental data reported in patent US10669238B2, “Irreversible bruton's tyrosine kinase inhibitor” (HEFEI INSTITUTES OF PHYSICAL SCIENCE, CHINESE ACADEMY OF …, priority 2016, dated 2020).
# Biological target: BTK protein kinase (Homo sapiens, UniProt Q06187)
# Test: In vitro enzymatic activity against BTK (ADP-Glo)
# Assay type: biochemical
# Details: compound with BTK 4 hours at room temperature; ATP 10 μM, 37° C. 1 hour; value printed in nm
# Summary of the method: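 BTK (1.5 ng/μL enzyme solution) was preincubated with compound (final 10 μM to 0.003 μM) for 4 h at room temperature. Reaction ran 1 h at 37 °C with 10 μM ATP and 0.2 μg/μL poly(Glu,Tyr) 4:1 (final). ADP formed was measured by ADP-Glo luminescence, and IC50 was obtained by curve plotting.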
# Chain of BTK protein kinase (Q06187 whole entry): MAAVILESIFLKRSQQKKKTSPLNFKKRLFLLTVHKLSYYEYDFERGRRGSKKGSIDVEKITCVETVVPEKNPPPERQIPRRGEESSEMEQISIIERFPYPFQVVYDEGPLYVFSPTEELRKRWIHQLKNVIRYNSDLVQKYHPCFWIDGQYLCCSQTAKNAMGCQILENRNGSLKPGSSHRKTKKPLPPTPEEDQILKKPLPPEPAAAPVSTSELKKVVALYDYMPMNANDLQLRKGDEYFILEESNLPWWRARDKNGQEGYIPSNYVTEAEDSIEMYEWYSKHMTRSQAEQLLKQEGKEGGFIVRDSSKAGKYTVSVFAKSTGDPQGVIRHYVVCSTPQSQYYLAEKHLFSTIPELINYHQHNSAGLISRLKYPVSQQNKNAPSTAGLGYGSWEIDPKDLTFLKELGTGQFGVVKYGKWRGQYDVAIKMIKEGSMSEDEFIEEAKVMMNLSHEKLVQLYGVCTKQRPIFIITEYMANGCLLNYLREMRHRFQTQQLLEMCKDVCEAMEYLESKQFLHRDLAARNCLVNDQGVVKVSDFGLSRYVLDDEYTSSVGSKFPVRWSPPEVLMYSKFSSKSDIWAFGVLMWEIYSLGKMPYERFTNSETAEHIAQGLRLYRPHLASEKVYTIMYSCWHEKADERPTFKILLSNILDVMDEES
row,IC50,Structure (SMILES)
1,126 nM,"C=CC(=O)Nc1cc(Nc2cc(-c3cccc(NC(=O)c4cc5ccccc5s4)c3C)cn(C)c2=O)ccc1N1CCC(OC)CC1 [Compound 87, N-(3-(5-((3-acrylamide-4-(4-methoxypiperidin-1-yl)phenyl)amino)-1-methyl-6-oxo-1,6-dihydropyridin-3-yl)-2-methylphenyl)benzo[b]thiophene-2-carboxamide]"

# Same assay, conditions: compound with BTK 4 hours at room temperature; ATP 10 μM, 37° C. 1 hour; values in nM
row,IC50,Structure (SMILES)
1,180 nM,"C=CC(=O)Nc1cc(Nc2cc(-c3cccc(NC(=O)c4ccc(C5CC5)cc4)c3C)cn(C)c2=O)ccc1N1CCN(C)CC1 [Compound 72, N-(3-(5-((3-acrylamide-4-(4-methylpiperazin-1-yl)phenyl)amino)-1-methyl-6-oxo-1,6-dihydropyridin-3-yl)-2-methylphenyl)-4-cyclopropylbenzoylamide]"
2,101 nM,"C=CC(=O)Nc1cc(Nc2cc(-c3cccc(NC(=O)c4cc5c(s4)CCCC5)c3C)cn(C)c2=O)ccc1N(C)C [Compound 77, N-(3-(5-((3-acrylamide-4-(dimethylamino)phenyl)amino)-1-methyl-6-oxo-1,6-dihydropyridin-3-yl)-2-methylphenyl)-4,5,6,7-tetrahydrobenzo[b]thiophene-2-carboxamide]"
3,82 nM,"C=CC(=O)Nc1cc(Nc2cc(-c3cccc(NC(=O)c4cc5c(s4)CCCC5)c3C)cn(C)c2=O)ccc1N1CCN(C(C)=O)CC1 [Compound 79, N-(3-(5-((4-(4-acetylpiperazin-1-yl)-3-acrylamidephenyl)amino)-1-methyl-6-oxo-1,6-dihydropyridin-3-yl)-2-methylphenyl)-4,5,6,7-tetrahydrobenzo[b]thiophene-2-carboxamide]"
4,83 nM,"C=CC(=O)Nc1cc(Nc2cc(-c3cccc(NC(=O)c4cc5c(s4)CCCC5)c3C)cn(C)c2=O)ccc1N1CCCC1 [Compound 80, N-(3-(5-((3-acrylamide-4-(pyrrolidin-1-yl)phenyl)amino)-1-methyl-6-oxo-1,6-dihydropyridin-3-yl)-2-methylphenyl)-4,5,6,7-tetrahydrobenzo[b]thiophene-2-carboxamide]"
5,16.7 nM,"C=CC(=O)Nc1cc(Nc2cc(-c3cccc(NC(=O)c4cc5c(s4)CCCC5)c3C)cn(C)c2=O)ccc1N1CCC(N(C)C)CC1 [Compound 83, N-(3-(5-((3-acrylamide-4-(4-(dimethylamino)piperidin-1-yl)phenyl)amino)-1-methyl-6-oxo-1,6-dihydropyridin-3-yl)-2-methylphenyl)-4,5,6,7-tetrahydrobenzo[b]thiophene-2-carboxamide]"
6,130 nM,"C=CC(=O)Nc1cc(Nc2cc(-c3cccc(NC(=O)c4cc5ccccc5s4)c3C)cn(C)c2=O)ccc1-n1cccn1 [Compound 85, N-(3-(5-((3-acrylamide-4-(1H-pyrazol-1-yl)phenyl)amino)-1-methyl-6-oxo-1,6-dihydropyridin-3-yl)-2-methylphenyl)benzo[b]thiophene-2-carboxamide]"
7,6.5 nM,"C=CC(=O)Nc1cc(Nc2cc(-c3cccc(NC(=O)c4cc5ccccc5s4)c3C)cn(C)c2=O)ccc1N1CCN(C(C)C)CC1 [Compound 90, N-(3-(5-((3-acrylamide-4-(4-isopropylpiperazin-1-yl)phenyl)amino)-1-methyl-6-oxo-1,6-dihydropyridin-3-yl)-2-methylphenyl)benzo[b]thiophene-2-carboxamide]"

# More lines, now with the values behind:
row,Structure (SMILES),IC50
1,"C=CC(=O)Nc1cc(Nc2cc(-c3cccc(NC(=O)c4cc5ccccc5s4)c3C)cn(C)c2=O)ccc1C(=O)N1CCOCC1 [Compound 68, N-(3-(5-((3-acrylamide-4-(morpholin-4-carbonyl)phenyl)amino)-1-methyl-6-oxo-1,6-dihydropyridin-3-yl)-2-methylphenyl)benzo[b]thiophene-2-carboxamide]",22 nM
2,"C=CC(=O)Nc1cc(Nc2cc(-c3cccc(NC(=O)c4cc5c(s4)CCCC5)c3C)cn(C)c2=O)ccc1C(=O)N1CCCC1 [Compound 69, N-(3-(5-((3-acrylamide-4-(pyrrolidin-1-carbonyl)phenyl)amino)-1-methyl-6-oxo-1,6-dihydropyridin-3-yl)-2-methylphenyl)-4,5,6,7-tetrahydrobenzo[b]thiophene-2-carboxamide]",83.6 nM
3,"C=CC(=O)Nc1cc(Nc2cc(-c3cccc(NC(=O)c4cc(C)cs4)c3C)cn(C)c2=O)ccc1C(=O)N1CCOCC1 [Compound 70, N-(3-(5-((3-acrylamide-4-(morpholin-4-carbonyl)phenyl)amino)-1-methyl-6-oxo-1,6-dihydropyridin-3-yl)-2-methylphenyl)-4-methylthiophene-2-carboxamide]",114 nM
4,"C=CC(=O)Nc1cc(Nc2cc(-c3cccc(NC(=O)c4ccc(C)s4)c3C)cn(C)c2=O)ccc1C(=O)N1CCOCC1 [Compound 71, N-(3-(5-((3-acrylamide-4-(morpholin-4-carbonyl)phenyl)amino)-1-methyl-6-oxo-1,6-dihydropyridin-3-yl)-2-methylphenyl)-5-methylthiophene-2-carboxamide]",30 nM
5,C=CC(=O)Nc1cc(Nc2cc(-c3cccc(NC(=O)c4ccc(N(C)C)cc4)c3C)cn(C)c2=O)ccc1N1CCOCC1 [Compound 73],24.9 nM
6,"C=CC(=O)Nc1cc(Nc2cc(-c3cccc(NC(=O)c4ccc(N(C)C)cc4)c3C)cn(C)c2=O)ccc1N1CCN(CC)CC1 [Compound 74, N-(3-(5-((3-acrylamide-4-(4-ethylpiperazin-1-yl)phenyl)amino)-1-methyl-6-oxo-1,6-dihydropyridin-3-yl)-2-methylphenyl)-4-(dimethylamino)benzoylamide]",23 nM
7,"C=CC(=O)Nc1cc(Nc2cc(-c3cccc(NC(=O)c4cc5c(s4)CCCC5)c3C)cn(C)c2=O)ccc1N1CCN(C)CC1 [Compound 75, N-(3-(5-((3-acrylamide-4-(4-methylpiperazin-1-yl)phenyl)amino)-1-methyl-6-oxo-1,6-dihydropyridin-3-yl)-2-methylphenyl)-4,5,6,7-tetrahydrobenzo[b]thiophene-2-carboxamide]",7 nM
8,"C=CC(=O)Nc1cc(Nc2cc(-c3cccc(NC(=O)c4cc5c(s4)CCCC5)c3C)cn(C)c2=O)ccc1N1CCN(CC)CC1 [Compound 76, N-(3-(5-((3-acrylamide-4-(4-ethylpiperazin-1-yl)phenyl)amino)-1-methyl-6-oxo-1,6-dihydropyridin-3-yl)-2-methylphenyl)-4,5,6,7-tetrahydrobenzo[b]thiophene-2-carboxamide]",25 nM
9,"C=CC(=O)Nc1cc(Nc2cc(-c3cccc(NC(=O)c4cc5c(s4)CCCC5)c3C)cn(C)c2=O)ccc1N1CCOCC1 [Compound 78, N-(3-(5-((3-acrylamide-4-morpholinophenyl)amino)-1-methyl-6-oxo-1,6-dihydropyridin-3-yl)-2-methylphenyl)4,5,6,7-tetrahydrobenzo[b]thiophene-2-carboxamide]",119 nM
10,"C=CC(=O)Nc1cc(Nc2cc(-c3cccc(NC(=O)c4cc5ccccc5s4)c3C)cn(C)c2=O)ccc1N1CCN(C)CC1 [Compound 81, N-(3-(5-((3-acrylamide-4-(4-methylpiperazin-1-yl)phenyl)amino)-1-methyl-6-oxo-1,6-dihydropyridin-3-yl)-2-methylphenyl)-benzo[b]thiophene-2-carboxamide]",28.9 nM
11,"C=CC(=O)Nc1cc(Nc2cc(-c3cccc(NC(=O)c4cc5ccccc5s4)c3C)cn(C)c2=O)ccc1N1CCOCC1 [Compound 82, N-(3-(5-((3-acrylamide-4-morpholinophenyl)amino)-1-methyl-6-oxo-1,6-dihydropyridin-3-yl)-2-methylphenyl)benzo[b]thiophene-2-carboxamide]",98.8 nM
12,"C=CC(=O)Nc1cc(Nc2cc(-c3cccc(NC(=O)c4cc5ccccc5s4)c3C)cn(C)c2=O)ccc1N1CCC(N(C)C)CC1 [Compound 84, N-(3-(5-((3-acrylamide-4-(4-(dimethylamino)piperidin-1-yl)phenyl)amino)-1-methyl-6-oxo-1,6-dihydropyridin-3-yl)-2-methylphenyl)benzo[b]thiophene-2-carboxamide]",7.8 nM
13,"C=CC(=O)Nc1cc(Nc2cc(-c3cccc(NC(=O)c4cc5c(s4)CCCC5)c3C)cn(C)c2=O)ccc1-n1cccn1 [Compound 86, N-(3-(5-((3-acrylamide-4-(1H-pyrazol-1-yl)phenyl)amino)-1-methyl-6-oxo-1,6-dihydropyridin-3-yl)-2-methylphenyl)-4,5,6,7-tetrahydrobenzo[b]thiophene-2-carboxamide]",9.9 nM
14,"C=CC(=O)Nc1cc(Nc2cc(-c3cccc(NC(=O)c4cc5c(s4)CCCC5)c3C)cn(C)c2=O)ccc1N1CCC(OC)CC1 [Compound 88, N-(3-(5-((3-acrylamide-4-(4-methoxypiperidin-1-yl)phenyl)amino)-1-methyl-6-oxo-1,6-dihydropyridin-3-yl)-2-methylphenyl)-4,5,6,7-tetrahydrobenzo[b]thiophene-2-carboxamide]",167 nM
15,"C=CC(=O)Nc1cc(Nc2cc(-c3cccc(NC(=O)c4cc5c(s4)CCCC5)c3C)cn(C)c2=O)ccc1N1CCN(C(C)C)CC1 [Compound 89, N-(3-(5-((3-acrylamide-4-(4-isopropylpiperazin-1-yl)phenyl)amino)-1-methyl-6-oxo-1,6-dihydropyridin-3-yl)-2-methylphenyl)-4,5,6,7-tetrahydrobenzo[b]thiophene-2-carboxamide]",23.1 nM
16,"C=CC(=O)Nc1cc(Nc2cc(-c3cccc(NC(=O)c4cc5ccccc5s4)c3C)cn(C)c2=O)ccc1N1CCN(CC)CC1 [Compound 91, N-(3-(5-((3-acrylamide-4-(4-ethylpiperazin-1-yl)phenyl)amino)-1-methyl-6-oxo-1,6-dihydropyridin-3-yl)-2-methylphenyl)benzo[b]thiophene-2-carboxamide]",156 nM
17,"C=CC(=O)Nc1cc(Nc2cc(-c3cccc(NC(=O)c4cc5ccccc5s4)c3C)cn(C)c2=O)ccc1N1CCN(C(C)=O)CC1 [Compound 92, N-(3-(5-((4-(4-acetylpiperazin-1-yl)-3-acrylamidephenyl)amino)-1-methyl-6-oxo-1,6-dihydropyridin-3-yl)-2-methylphenyl)benzo[b]thiophene-2-carboxamide]",71.7 nM
